Measured values from PMC4708007 (Bioscience Reports, 2015).
Where two headings read alike, the source gives them in different places.

Columns and labels:
EcRelA = biological target: T1, EcRelA (Escherichia coli, UniProt P0AG20); format: biochemical
T1 construct: gene relA

[1] = biological target: Francisella tularensis RelA (Francisella tularensis subspecies tularensis SCHU S4); assay: SEC

T1 sequence (P0AG20 whole entry): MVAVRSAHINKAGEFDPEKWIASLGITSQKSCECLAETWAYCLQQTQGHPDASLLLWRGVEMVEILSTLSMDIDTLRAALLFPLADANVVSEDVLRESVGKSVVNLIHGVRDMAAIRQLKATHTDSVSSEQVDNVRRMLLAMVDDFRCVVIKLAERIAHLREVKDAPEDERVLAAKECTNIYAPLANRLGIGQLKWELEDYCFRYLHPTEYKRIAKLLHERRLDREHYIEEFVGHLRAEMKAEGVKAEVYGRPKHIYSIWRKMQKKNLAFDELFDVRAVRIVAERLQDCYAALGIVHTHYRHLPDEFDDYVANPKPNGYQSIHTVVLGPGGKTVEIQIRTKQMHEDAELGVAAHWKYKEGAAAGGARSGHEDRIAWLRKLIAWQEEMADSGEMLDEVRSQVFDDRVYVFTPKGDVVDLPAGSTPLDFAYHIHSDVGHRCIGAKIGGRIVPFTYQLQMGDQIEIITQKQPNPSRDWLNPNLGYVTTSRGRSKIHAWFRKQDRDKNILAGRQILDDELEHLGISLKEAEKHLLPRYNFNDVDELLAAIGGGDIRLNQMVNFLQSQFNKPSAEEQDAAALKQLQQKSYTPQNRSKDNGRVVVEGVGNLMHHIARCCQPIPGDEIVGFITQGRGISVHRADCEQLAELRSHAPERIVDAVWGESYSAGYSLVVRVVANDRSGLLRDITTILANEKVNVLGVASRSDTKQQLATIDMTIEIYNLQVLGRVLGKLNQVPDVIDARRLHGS

Which “IP RP HPLC end-point assay of AMP formation” value (EcRelA; 2 mM ATP and 2 mM GTP, 0.5 μM RelA, with or without stalled ribosomal complexes, 15 mM MgCl2, pH 8.0, 30°C) does the source give for `Nc1ncnc2c1ncn2[C@@H]1O[C@H](COP(=O)(O)OP(=O)(O)OP(=O)(O)O)[C@@H](O)[C@H]1O` [ATP] here?
The value was “Both EcRelA and FtRelA demonstrated basal levels of activity in the absence of stalled ribosomes”.

With `Nc1nc2c(ncn2[C@@H]2O[C@H](COP(=O)(O)OP(=O)(O)OP(=O)(O)O)[C@@H](O)[C@H]2O)c(=O)[nH]1` [GTP] as the compound, how does the “IP RP HPLC end-point assay of AMP formation” value (EcRelA) read?
The value was “Both EcRelA and FtRelA demonstrated basal levels of activity in the absence of stalled ribosomes”.

How did the stoichiometry N [1] turn out when Francisella tularensis RelA (enzyme) was run?
The stoichiometry N was 2.
